Test results taken from PubChem BioAssay (NCI).
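Step 1: Grow cells in 96-well plates. Step 2: Expose to compound for 48 hours at 5 concentrations. Step 3: Interpolate endpoints linearly; if unreached, use highest concentration. GI50: concentration for 50% inhibition of growth. TGI: concentration producing complete growth inhibition.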

Key:
Experiment in all cases: NCI anticancer screen, dose series, 48 h
[1] = system: HCC-2998 colon
[2] = system: K-562 leukemia
[3] = system: MOLT-4 leukemia
[4] = system: OVCAR-3 ovarian
[5] = system: SNB-19 CNS
[6] = system: SR leukemia
[7] = system: TK-10 renal
[8] = system: U251 CNS
[9] = system: CAKI-1 renal
[10] = system: OVCAR-4 ovarian
[11] = system: OVCAR-5 ovarian
[12] = system: SNB-75 CNS
[13] = system: MDA-MB-231 breast
[14] = system: PC-3 prostate

Structure (SMILES) | TGI [1] [µM] | TGI [2] [µM] | TGI [3] [µM] | TGI [4] [µM] | TGI [5] [µM] | TGI [6] [µM] | TGI [7] [µM] | TGI [8] [µM] | TGI [9] [µM] | TGI [10] [µM] | TGI [11] [µM] | TGI [12] [µM] | TGI [13] [µM] | TGI [14] [µM] | GI50 [9] [µM] | GI50 [2] [µM] | GI50 [3] [µM] | GI50 [11] [µM] | GI50 [6] [µM] | GI50 [7] [µM]
CC1(C)CC(C2CC(C)(C)CC(C)(C)[C@H]2O)[C@@H](O)C(C)(C)C1 (stereo partly drawn) | > 100 | > 100 | > 100 | > 100 | > 100 | > 100 | > 100 | > 100 | – | – | – | – | – | – | – | – | – | – | – | –
COc1cccc(/C=N/[N-]C(N)=O)c1[O-].[OH3+].[Zn+2] | > 100 | > 100 | > 100 | > 100 | > 100 | > 100 | > 100 | > 100 | > 100 | > 100 | > 100 | > 100 | – | – | – | – | – | – | – | –
N=C1SCCS1 | > 100 | > 100 | > 100 | > 100 | > 100 | – | > 100 | > 100 | > 100 | > 100 | > 100 | > 100 | – | – | – | – | – | – | – | –
CCOC(=O)/C(C#N)=N\Nc1ccc(-n2c(C)nc3ccc(Br)cc3c2=O)cc1 | – | > 100 | > 100 | > 100 | > 100 | > 100 | > 100 | > 100 | > 100 | – | > 100 | > 100 | > 100 | > 100 | – | – | – | – | – | –
O=C1NCC2=C1CCC1c3ccccc3CCN21 (stereo not drawn) | > 100 | – | > 100 | > 100 | > 100 | > 100 | > 100 | > 100 | > 100 | – | > 100 | > 100 | – | – | – | – | – | – | – | –
CC[n+]1c(/C=C/c2ccc(N(CCCl)CCCl)cc2)ccc2cc(Br)ccc21 | 3.13 | – | – | 2.22 | 2.57 | – | – | 4.11 | – | 7.98 | – | 0.936 | – | – | 1650 | 125 | 109 | 202 | 132 | 652
CCOC(=O)C(NC(=O)Nc1ccccc1F)(OC)C(F)(F)F (stereo not drawn) | > 100 | > 100 | > 100 | – | > 100 | > 100 | > 100 | > 100 | > 100 | – | > 100 | > 100 | – | > 100 | – | – | – | – | – | –
O=c1[nH]nc(Cc2ccc(Cl)cc2)n1Nc1ccccc1 | > 100 | > 100 | > 100 | > 100 | > 100 | – | > 100 | > 100 | > 100 | > 100 | > 100 | > 100 | > 100 | > 100 | – | – | – | – | – | –
CCOC(=O)CC(=O)Nc1c(C(=O)OCC)sc2nc(SC)nc(Nc3ccc(OC)c(OC)c3)c12 | > 100 | – | – | 40.1 | – | – | > 100 | 25.1 | > 100 | > 100 | > 100 | 21.9 | > 100 | > 100 | – | – | – | – | – | –
Cc1oc2nc(N(C)C)n3c(C)nnc3c2c1C | > 100 | > 100 | > 100 | – | > 100 | > 100 | > 100 | > 100 | > 100 | > 100 | > 100 | > 100 | > 100 | – | – | – | – | – | – | –
c1ccc2c(-c3ccnc(-c4c[nH]c5ccccc45)n3)c[nH]c2c1 | – | > 100 | 5.84 | > 100 | > 100 | 19.4 | > 100 | 14.2 | 74.6 | > 100 | > 100 | – | – | 10.7 | – | – | – | – | – | –
NC(=S)NS(=O)(=O)c1ccc(F)cc1 | > 100 | > 100 | > 100 | > 100 | > 100 | – | > 100 | > 100 | > 100 | > 100 | > 100 | > 100 | > 100 | > 100 | – | – | – | – | – | –
C[C@H]1ON2CCC[C@@H]2[C@@H]1C(=O)N1C2CC3CCC2(CS1(=O)=O)C3(C)C (stereo partly drawn) | > 100 | > 100 | – | > 100 | > 100 | – | > 100 | > 100 | > 100 | > 100 | > 100 | > 100 | > 100 | > 100 | – | – | – | – | – | –
CC1=NN(c2ccccc2Cl)C2(C1)SCC(=O)N2c1nc2ccccc2s1 (stereo not drawn) | > 100 | > 100 | – | > 100 | > 100 | – | > 100 | > 100 | > 100 | > 100 | > 100 | > 100 | > 100 | > 100 | – | – | – | – | – | –
CCC/C(Cl)=N/OC(=O)Nc1cccc(F)c1 | 30.4 | 8.87 | 5.55 | 6.6 | 32.3 | – | > 19.7 | 32.6 | 7.77 | 25.4 | 36.3 | 28.3 | 27.7 | 30.7 | – | – | – | – | – | –
O=C(O)c1ccccc1/C=C1\Cc2ccc3c(c2C1=O)CCCC3 | 85.1 | > 100 | 58.6 | > 100 | > 100 | 61 | > 100 | > 100 | – | > 100 | > 100 | 86 | 62.3 | – | – | – | – | – | – | –
Nc1nc(SCC(=O)c2ccccc2)nc2nc3c(c(-c4ccccc4)c12)CCCC3 | > 100 | > 100 | > 100 | 94.5 | > 100 | > 100 | > 100 | > 100 | > 100 | 66.4 | > 100 | 78.6 | > 100 | – | – | – | – | – | – | –
COc1cccc2c(=O)c3c(O)c4cc(N(C)C)ccc4c(OC(C)=O)c3oc12 | 32.5 | 97.4 | 40.5 | 13.6 | 91.6 | – | 29.3 | 30.2 | 16.9 | 32 | > 100 | 51.4 | 25 | 56.7 | – | – | – | – | – | –
c1ccc(NC2(c3nnnn3C3CCCCC3)CCNCC2)cc1 | 27.3 | – | 43.5 | – | 42.5 | 36.1 | 33.3 | 31.5 | – | > 100 | 43.4 | 32.7 | > 100 | – | – | – | – | – | – | –
O=C(CN1c2ccccc2Sc2ccccc21)n1cnc2ccccc21 | – | > 100 | > 100 | > 100 | > 100 | – | > 100 | > 100 | – | > 100 | > 100 | > 100 | > 100 | > 100 | – | – | – | – | – | –
CC1(C)O[C@@H]([C@@H](O)[C@H](O)C2SCCCS2)[C@@H](CO)O1 | – | > 100 | > 100 | > 100 | > 100 | – | > 100 | > 100 | > 100 | – | > 100 | > 100 | > 100 | > 100 | – | – | – | – | – | –
COc1ccc(OC)c(CC(=O)c2ccc(O)c(C(=O)NCCc3ccc(F)cc3)c2)c1 | 13.1 | > 100 | 17.4 | 3.17 | 52.5 | 10 | 45.8 | 13.7 | 14.5 | 31 | > 100 | 6.9 | 20.4 | – | – | – | – | – | – | –
CC(C)(C)OC(=O)N1CCC[C@H]1CSC[C@@H]1CCCN1C(=O)OC(C)(C)C | > 100 | 84.7 | 37.5 | 90.3 | > 100 | – | > 100 | 90.7 | > 100 | > 100 | > 100 | 77.2 | > 100 | 82.1 | – | – | – | – | – | –
COc1ccc(-c2c(C(=O)Nc3ccccc3)c(-c3ccccc3)n(C3OC(CO)C(O)C(O)C3O)c(=S)c2C#N)cc1 (stereo not drawn) | > 100 | > 100 | > 100 | > 100 | > 100 | > 100 | – | > 100 | > 100 | > 100 | > 100 | – | – | > 100 | – | – | – | – | – | –
O=C(O)C1CCCCN1CCc1c[nH]c2ccccc12 (stereo not drawn) | > 100 | > 100 | > 100 | > 100 | > 100 | – | > 100 | > 100 | > 100 | > 100 | > 100 | > 100 | > 100 | > 100 | – | – | – | – | – | –
CSc1ccc(C=C2N=C(c3ccccc3)N(c3cc(C(=O)c4ccccc4)ccc3N3C(=O)/C(=C/c4ccc(SC)cc4)N=C3c3ccccc3)C2=O)cc1 | > 100 | > 100 | > 100 | 55.1 | > 100 | – | > 100 | > 100 | > 100 | > 100 | > 100 | 61.5 | > 100 | > 100 | – | – | – | – | – | –
COC1(CCO)CC=CCC1(CCO)OC (stereo not drawn) | – | > 100 | > 100 | > 100 | > 100 | – | > 100 | – | > 100 | > 100 | > 100 | > 100 | – | > 100 | – | – | – | – | – | –
CCOP(=O)(OCC)OC1CC(n2cnc3c(N(CC)CC)ncnc32)OC1CO[Si](C)(C)C(C)(C)C (stereo not drawn) | 43.8 | 57.6 | 30.7 | 44.9 | 33.7 | > 100 | 33 | 28.7 | 31.5 | 29.5 | 37.1 | 23.3 | – | 28.5 | – | – | – | – | – | –
